Measurements taken from patent US20240180884A1, “PYRIDOSTIGMINE FOR USE IN THE TREATMENT OF COVID-19” (priority 2021, published 2024).

System: SARS-COV-2 infection (severe COVID-19)
Assay: Randomized, parallel, double-blind, placebo-controlled clinical trial of oral pyridostigmine in adults hospitalized due to severe COVID-19
Format: in vivo, human
Conditions: for Primary outcome: Invasive mechanical ventilation or death - %: N = 94, day 28, placebo 23.4%; for Death - % (28-day case fatality): day 28, 60 mg/day orally, placebo 20.2%; for Discharge - % (probability of being discharged from the hospital within 28 days of randomization): placebo 79.8%
Description: The trial was conducted to reduce the incidence of mechanical ventilation or death in adults hospitalized due to severe COVID-19. A randomized, parallel, double-blind, placebo-controlled clinical trial was conducted. Participants were randomized (1:1 ratio) to receive oral pyridostigmine at a dose of 60 mg/day orally or an identical placebo (drug-grade starch) until the occurrence of any of the a priori specified outcomes, the hospital discharge or a maximum period of 14 days of hospital confinement, whichever comes first. The study was externally and independently watched and monitored by an independent Data and Security Monitoring Committee (DSMB). The study was conducted in two parts: an initial phase aimed at determining safety (from May 5 to Jul. 4, 2020) in which the first 44 participants were evaluated, followed by a part of a phase aimed at evaluating the effect, or lack thereof, of pyridostigmine in patients with severe COVID-19 (Jul. 5, 2020 to Jan. 30, 2021).
Adult hospitalized patients (>18 years) with confirmed SARS-COV-2 infection based on a positive RT-PCR test for SARS-COV-2 ribonucleic acid in a respiratory sample (nasopharyngeal or nasal swab) and a imaging study compatible with pneumonia, and at least one criterion of high risk of death.
Participants were randomized 1:1, with parallel allocation. Demographic information was collected from the participants at baseline, including age, sex, presence of comorbidities (including diabetes mellitus, hypertension, obesity, cardiovascular disease, lung disease or other chronic medical conditions). Participants who had already been discharged from the hospital by day 28 were contacted by phone to assess their vital and functional status.
Based on early evidence from China, an estimated 25% of patients hospitalized with severe SARS-COV-2 infection would develop complications that would lead to the need for invasive mechanical ventilation or death. Consequently, it is estimated that this sample size would allow us to identify with a power of 80% a reduction in the need for invasive mechanical ventilation or death of 10% in the group that received pyridostigmine compared to the group that received placebo, using a two-tailed […] at the significance level of 0.05. […] Based on the results of said analysis and with the data presented here, it was decided to terminate the study early.
The study was carried out at Instituto Nacional de Ciencias Médicas y Nutrición Salvador Zubirán (principal center) and Instituto Nacional de Cardiología Ignacio Chávez (recruiting center), two COVID-19 designated hospitals in Mexico City, Mexico.
An intention-to-treat analysis was performed comparing the proportion of outcomes between both therapeutic arms using the X^2 test. A multivariate logistic regression model was used to evaluate the variables associated with primary outcomes.

[1] = at the proposed dose of pyridostigmine (60 mg/day)
[2] = secondary outcome, 60 mg/day orally, N = 94

In the case of `CN(C)C(=O)Oc1ccc[n+](C)c1` [Pyridostigmine], the “Median time (IQR) from randomization to discharge” value (60 mg/day orally, N = 94) is reported as 5 days, the “Rate of adverse events” value [1] is reported as 5-6% and the Serious adverse effects [1] is reported as “no serious adverse effects reported”. For the same compound, the “Primary outcome: Invasive mechanical ventilation or death - %” value (hospitalized severe COVID-19 patients, 60 mg/day orally up to 14 days, p=0.03) was “(11.7) %”, the “Primary outcome: Invasive mechanical ventilation or death - %” value (hospitalized severe COVID-19 patients, 60 mg/day orally up to 14 days, p=0.03, listed as pyridostigmine) was 11.7% and the “Primary outcome: Invasive mechanical ventilation or death - no.” value (hospitalized severe COVID-19 patients, 60 mg/day orally up to 14 days, N = 94, intention to treat, day 28) was 11. The “Death after invasive mechanical ventilation (text, among ventilated patients)” value (placebo 57.1%, no difference between groups) was 33.3%, the “Risk index, 28-day case fatality” value (pyridostigmine vs. placebo, 95% CI 0.16 to 0.7, p=0.01) was 0.33 and the “Hazard ratio, invasive mechanical ventilation or death on day 28” value (pyridostigmine vs. placebo, 95% CI 0.24 to 0.94, p=0.03) was 0.47. For the same compound, the “Death after invasive mechanical ventilation - no.” value [2] was 2, the “Invasive mechanical ventilation - %” value [2] was “(6.4) %” and the “Invasive mechanical ventilation - no.” value [2] was 6. For the same compound, the “Invasive mechanical ventilation - %” value (secondary outcome, 60 mg/day orally, N = 94, listed as pyridostigmine) was 6.3%, the Death - no. (secondary outcome, before day 28, 60 mg/day orally, N = 94) was 7 and the “Death - % (28-day case fatality)” value (secondary outcome, N = 94, p=0.01) was “(7.5) %”. The “Death - % (28-day case fatality)” value (secondary outcome, N = 94, p=0.01, listed as pyridostigmine) was 7.4%, the “Death after invasive mechanical ventilation - %” value (secondary outcome, percent of all N = 94) was “(2.1) %” and the Discharge - no. (secondary outcome, within 28 days of randomization, N = 94) was 87. For the same compound, the “Discharge - % (probability of being discharged from the hospital within 28 days of randomization)” value (within 28 days of randomization, N = 94, p=0.01) was “(92.6) %” and the “Discharge - % (probability of being discharged from the hospital within 28 days of randomization)” value (within 28 days of randomization, N = 94, p=0.01, listed as pyridostigmine) was 92.6%.
